Results: patent publication US9115129B2, “Substituted pyrido[2,3-B]pyrazines as IP receptor agonists” (Novartis AG, priority 2012, dated 2015)
pEC50: −log10 of the molar value.

What follows are molecules tested against T1, IP receptor (Homo sapiens, UniProt P43119) (assay: cAMP accumulation in CHO cells stably expressing the IP receptor (CHO-IP), Perkin Elmer AlphaScreen assay). Details: agonist activity, 1 hour at room temperature.
T1 construct: expressed in transfected cells; host or cells: CHO cells stably expressing the IP receptor (CHO-IP)
Format: cell-based
Experimental: Activity of compounds at the IP receptor (IP receptor) is assessed by measuring cAMP accumulation in CHO cells stably expressing the IP receptor (CHO-IP) using the Perkin Elmer AlphaScreen assay. This technology measures the endogenous production of cAMP, in a non-radioactive luminescence proximity homogenous assay. A biological reaction occurs between streptavidin coated donor beads, biotinylated cAMP and anti-cAMP acceptor beads, bringing the donor and acceptor beads close enough together so that upon excitation a fluorescence signal is produced. On production of endogenous cAMP, competition between the biotinylated cAMP and cellular-derived cAMP causes a reduction in the fluorescent signal. The reduction in signal is proportional to the amount of cAMP being produced, thus it is possible to quantify the amount of cAMP being produced on stimulation with agonist.
Test and reference compounds are prepared at 100× [final] in 100% DMSO, and diluted 1:3 using a Biomek Fx (Beckman Coulter). This is followed by an intermediate dilution to give 5× [final] in assay buffer (HBSS containing 5 mM HEPES, 0.1% (w/v) BSA). 5 μL of 5× [final] test compounds, reference compounds and buffer/DMSO control are then transferred to a 384-well white OptiPlate, containing 20 μL CHO-IP cell suspension (15,000 cells/well, prepared from frozen), and plate is incubated at room temperature for 1 hour. A cAMP standard curve is constructed for each experiment (concentration range of 10000 nM to 0.001 nM, in assay buffer) and 25 μL of each concentration added to the last two columns of the assay plate. The incubation is terminated by the addition of lysis buffer (dH2O; 0.3% (v v^−1) Tween-20) containing 20 units mL^−1 streptavidin coated donor beads and biotinylated cAMP (pre-incubated for 30 minutes) and 20 units mL^−1 anti-cAMP acceptor beads, which are added to the lysis buffer just before addition to the assay plate. The assay plate is then incubated at room temperature in the dark, for 60 minutes with gentle shaking, and read on the Envision plate reader (Perkin Elmer).
The raw data of the reference compounds, test compounds and controls are converted into cAMP concentrations, using the cAMP standard curve, in Graph Pad Prism (Graph Pad Software Inc). EC50 as well as maximal values of the agonist curves are determined using a 4-parameter logistic equation. The % maximum response values of all test compounds are determined using the top of the treprostinil concentration-response curve.

T1 sequence (P43119 whole entry): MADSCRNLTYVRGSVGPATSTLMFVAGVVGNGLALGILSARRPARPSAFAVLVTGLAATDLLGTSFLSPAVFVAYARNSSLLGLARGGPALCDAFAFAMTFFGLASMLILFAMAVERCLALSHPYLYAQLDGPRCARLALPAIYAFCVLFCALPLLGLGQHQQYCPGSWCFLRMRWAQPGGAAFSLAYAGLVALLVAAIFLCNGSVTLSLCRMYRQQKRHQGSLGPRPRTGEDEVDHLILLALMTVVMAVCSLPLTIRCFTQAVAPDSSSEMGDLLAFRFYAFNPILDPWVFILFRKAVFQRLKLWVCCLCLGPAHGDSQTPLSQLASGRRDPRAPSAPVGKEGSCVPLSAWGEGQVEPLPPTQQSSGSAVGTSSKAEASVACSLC

Compared with `COC1(C)CCN(CCCCCCC(=O)O)c2nc(-c3ccc(C)cc3)c(-c3ccc(C)cc3)nc21` (single isomer, unassigned) [Example 15b, (R)-7-(8-Methoxy-8-methyl-2,3-di-p-tolyl-7,8-dihydropyrido[2,3-b]pyrazin-5(6H)-yl)heptanoic acid or (S)-7-(8-Methoxy-8-methyl-2,3-di-p-tolyl-7,8-dihydropyrido[2,3-b]pyrazin-5(6H)-yl)heptanoic acid], `Cc1ccc(-c2nc3c(nc2-c2ccc(C)cc2)N(CCCCCC(=O)O)CCC3)cc1` [Example 10, 6-(2,3-Di-p-tolyl-7,8-dihydropyrido[2,3-b]pyrazin-5(6H)-yl)hexanoic acid] is 1.08 log units higher in pEC50: 8.44 for the first, 9.52 for the second.

Compared with `Cc1ccc(-c2nc3c(nc2-c2ccc(C)cc2)N(CCCC[C@@H](O)CC(=O)O)CCC3)cc1` (single isomer, unassigned) [Example 17a, (R)-7-(2,3-Di-p-tolyl-7,8-dihydropyrido[2,3-b]pyrazin-5(6H)-yl)-3-hydroxyheptanoic acid or (S)-7-(2,3-Di-p-tolyl-7,8-dihydropyrido[2,3-b]pyrazin-5(6H)-yl)-3-hydroxyheptanoic acid], `Cc1ccc(-c2nc3c(nc2-c2ccc(C)cc2)N(CCCCC(O)CC(=O)O)CCC3)cc1` (single isomer, unassigned) [Example 17b, (R)-7-(2,3-Di-p-tolyl-7,8-dihydropyrido[2,3-b]pyrazin-5(6H)-yl)-3-hydroxyheptanoic acid or (S)-7-(2,3-Di-p-tolyl-7,8-dihydropyrido[2,3-b]pyrazin-5(6H)-yl)-3-hydroxyheptanoic acid] is 0.30 log units higher in pEC50: 8.44 for the first, 8.74 for the second.

Going from `Cc1ccc(-c2nc3c(nc2-c2ccc(C)cc2)N(CCCCCCCC(=O)O)C(=O)CC3)cc1` [Example 1.2, 8-(6-Oxo-2,3-di-p-tolyl-7,8-dihydropyrido[2,3-b]pyrazin-5(6H)-yl)octanoic acid] to `Cc1ccc(-c2nc3c(nc2-c2ccc(C)cc2)N(CCCCCCCCC(=O)O)C(=O)CC3)cc1` [Example 8, 9-(6-Oxo-2,3-di-p-tolyl-7,8-dihydropyrido[2,3-b]pyrazin-5(6H)-yl)nonanoic acid], the pEC50 falls from 8.72 to 8.15 (0.57 log units). The first is the more potent here.

`CCC1Cc2nc(-c3ccc(C)cc3)c(-c3ccc(C)cc3)nc2N(CCCCCCC(=O)O)C1` (stereo not shown) [Example 2.1, 7-(7-Ethyl-2,3-di-p-tolyl-7,8-dihydropyrido[2,3-b]pyrazin-5(6H)-yl)heptanoic acid] and `Cc1ccc(-c2nc3c(nc2-c2ccc(C)cc2)N(CCCCCCCCC(=O)O)CCC3)cc1` [Example 9.1, 9-(2,3-Di-p-tolyl-7,8-dihydropyrido[2,3-b]pyrazin-5(6H)-yl)nonanoic acid] are within 0.2 log units of each other in pEC50: 9.40 for the first, 9.22 for the second.

Compared with `Cc1ccc(-c2nc3c(nc2-c2ccccc2)CC(C)CN3CCCCCCC(=O)O)cc1` (stereo not shown) [Example 2.2, 7-(7-Methyl-2-phenyl-3-(p-tolyl)-7,8-dihydropyrido[2,3-b]pyrazin-5(6H)-yl)heptanoic acid], `Cc1ccc(-c2nc3c(nc2-c2ccccc2)CCC(C)N3CCCCCCC(=O)O)cc1` (stereo not shown) [Example 2.4, 7-(6-Methyl-2-phenyl-3-p-tolyl-7,8-dihydropyrido[2,3-b]pyrazin-5(6H)-yl)heptanoic acid] is 1.38 log units lower in pEC50: 10.00 for the first, 8.62 for the second.

Going from `Cc1ccc(-c2nc3c(nc2-c2ccccc2C)N(CCCCCCC(=O)O)CCC3)cc1` [Example 2.5, 7-(3-o-Tolyl-2-p-tolyl-7,8-dihydropyrido[3,2-b]pyrazin-5(6H)-yl)heptanoic acid] to `Cc1ccc(-c2nc3c(nc2-c2ccccc2C)CCCN3CCCCCCC(=O)O)cc1` [Example 2.6, 7-(2-o-Tolyl-3-p-tolyl-7,8-dihydropyrido[3,2-b]pyrazin-5(6H)-yl)heptanoic acid], the pEC50 rises from 8.41 to 9.22 (0.81 log units).

Going from `Cc1ccc(-c2nc3c(nc2-c2ccccc2F)CCCN3CCCCCCC(=O)O)cc1` [Example 2.7, 7-(2-(2-Fluorophenyl)-3-p-tolyl-7,8-dihydropyrido[2,3-b]pyrazin-5(6H)-yl)heptanoic acid] to `Cc1ccc(-c2nc3c(nc2-c2cccc(F)c2)CCCN3CCCCCCC(=O)O)cc1` [Example 2.9, 7-(2-(3-Fluorophenyl)-3-p-tolyl-7,8-dihydropyrido[2,3-b]pyrazin-5(6H)-yl)heptanoic acid], the pEC50 rises from 9.52 to 10.00 (0.48 log units). The second is the more potent here.

`Cc1ccc(-c2nc3c(nc2-c2ccc(F)cc2)CCCN3CCCCCCC(=O)O)cc1` [Example 2.8, 7-(2-(4-Fluorophenyl)-3-p-tolyl-7,8-dihydropyrido[2,3-b]pyrazin-5(6H)-yl)heptanoic acid] and `COc1ccc(-c2nc3c(nc2-c2ccc(C)cc2)N(CCCCCCC(=O)O)CCC3)cc1` [Example 2.10, 7-(2-(4-Methoxyphenyl)-3-p-tolyl-7,8-dihydropyrido[2,3-b]pyrazin-5(6H)-yl)heptanoic acid] are the same in pEC50: 9.40 for the first, 9.40 for the second.

First: O=C(O)CCCCCCN1CCCc2nc(-c3ccc(F)cc3F)c(-c3ccc(F)cc3F)nc21 [Example 4, 7-(2,3-Bis(2,4-difluorophenyl)-7,8-dihydropyrido[2,3-b]pyrazin-5(6H)-yl)heptanoic acid]
Second: Cc1ccc(-c2nc3c(nc2-c2ccc(C)nc2)N(CCCCCCC(=O)O)CCC3)cn1 [Example 5, 7-(2,3-Bis(6-methylpyridin-3-yl)-7,8-dihydropyrido[2,3-b]pyrazin-5(6H)-yl)heptanoic acid]
The pEC50 of the first is 1.22 log units higher: 9.15 for the first, 7.93 for the second.

`Cc1ccc(-c2nc3c(nc2-c2ccc(C)nc2)CCCN3CCCCCCC(=O)O)cc1` [Example 6, 7-(2-(6-Methylpyridin-3-yl)-3-p-tolyl-7,8-dihydropyrido[2,3-b]pyrazin-5(6H)-yl)heptanoic acid] and `Cc1ccc(-c2nc3c(nc2-c2ccc(C)nc2)N(CCCCCCC(=O)O)CCC3)cc1` [Example 7, 7-(3-(6-Methylpyridin-3-yl)-2-p-tolyl-7,8-dihydropyrido[2,3-b]pyrazin-5(6H)-yl)heptanoic acid] are the same in pEC50: 9.70 for the first, 9.70 for the second.

First: O=C(O)CCCCCCN1C(=O)CCc2nc(-c3ccc(Cl)cc3)c(-c3ccc(Cl)cc3)nc21 [Example 7.1, 7-(2,3-Bis(4-chlorophenyl)-6-oxo-7,8-dihydropyrido[2,3-b]pyrazin-5(6H)-yl)heptanoic acid]
Second: Cc1ccc(-c2nc3c(nc2-c2ccc(Cl)cc2)CCC(=O)N3CCCCCCC(=O)O)cc1 [Example 7.2, 7-(2-(4-Chlorophenyl)-6-oxo-3-p-tolyl-7,8-dihydropyrido[2,3-b]pyrazin-5(6H)-yl)heptanoic acid]
The pEC50 of the first is 0.28 log units lower: 8.64 for the first, 8.92 for the second.

First: Cc1ccc(-c2nc3c(nc2-c2ccc(Cl)cc2)N(CCCCCCC(=O)O)C(=O)CC3)cc1 [Example 7.3, 7-(3-(4-Chlorophenyl)-6-oxo-2-p-tolyl-7,8-dihydropyrido[2,3-b]pyrazin-5(6H)-yl)heptanoic acid]
Second: CNC(=O)CCCCCCN1CCCc2nc(-c3ccc(C)cc3)c(-c3ccc(C)cc3)nc21 [Example 12.4, 7-(2,3-Di-p-tolyl-7,8-dihydropyrido[2,3-b]pyrazin-5(6H)-yl)-N-methylheptanamide]
The pEC50 of the first is 1.60 log units higher: 9.52 for the first, 7.92 for the second.

`Cc1ccc(-c2nc3c(nc2-c2ccc(C)cc2)N(CCCCCCC(=O)NS(=O)(=O)Cc2ccccc2)CCC3)cc1` [Example 12, N-(Benzylsulfonyl)-7-(2,3-di-p-tolyl-7,8-dihydropyrido[2,3-b]pyrazin-5(6H)-yl)heptanamide] and `Cc1ccc(-c2nc3c(nc2-c2ccc(C)cc2)N(CCCCCCC(=O)NS(=O)(=O)c2ccccc2)CCC3)cc1` [Example 12.2, 7-(2,3-Di-p-tolyl-7,8-dihydropyrido[2,3-b]pyrazin-5(6H)-yl)-N-(phenylsulfonyl) heptanamide] are within 0.2 log units of each other in pEC50: 8.23 for the first, 8.19 for the second.

`Cc1ccc(-c2nc3c(nc2-c2ccc(C)cc2)N(CCCCCCC(=O)NCc2ccccc2)CCC3)cc1` [Example 12.1, N-Benzyl-7-(2,3-di-p-tolyl-7,8-dihydropyrido[2,3-b]pyrazin-5(6H)-yl)heptanamide] and `Cc1ccc(-c2nc3c(nc2-c2ccc(C)cc2)N(CCCCCCC(=O)Nc2ccccc2)CCC3)cc1` [Example 12.5, 7-(2,3-Di-p-tolyl-7,8-dihydropyrido[2,3-b]pyrazin-5(6H)-yl)-N-phenylheptanamide] are within 0.2 log units of each other in pEC50: 7.40 for the first, 7.39 for the second.

First: Cc1ccc(-c2nc3c(nc2-c2ccc(C)cc2)N(CCCCCCC(=O)NC(C)C)CCC3)cc1 [Example 12.3, 7-(2,3-Di-p-tolyl-7,8-dihydropyrido[2,3-b]pyrazin-5(6H)-yl)-N-isopropylheptanamide]
Second: CONC(=O)CCCCCCN1CCCc2nc(-c3ccc(C)cc3)c(-c3ccc(C)cc3)nc21 [Example 12.6, 7-(2,3-Di-p-tolyl-7,8-dihydropyrido[2,3-b]pyrazin-5(6H)-yl)-N-methoxyheptanamide]
The pEC50 of the first is 0.98 log units lower: 7.35 for the first, 8.33 for the second. The second is the more potent here.

For `Cc1ccc(-c2nc3c(nc2-c2ccc(C)cc2)N(CCCCCCC(=O)N(C)C)CCC3)cc1` [Example 12.7, 7-(2,3-Di-p-tolyl-7,8-dihydropyrido[2,3-b]pyrazin-5(6H)-yl)-N,N-dimethylheptanamide], the pEC50 was 7.12.
